In the test the target is T1, human histamine H3 receptor (Homo sapiens, UniProt Q9Y5N1).
T1 construct: One microgram of supercoiled H3 receptor cDNA was added to the cells and mixed; expressed in transfected cells; membranes prepared from cell pellets
Nature of the test: [3H]-N-methylhistamine binding. As to the method:
Transfection of Cells with Human Histamine Receptor
A 10 cm tissue culture dish with a confluent monolayer of SK-N-MC cells was split two days prior to transfection. Using sterile technique the media were removed and the cells were detached from the dish by the addition of trypsin. One fifth of the cells were then placed onto a new 10 cm dish. Cells were grown in a 37° C. incubator with 5% CO2 in Minimal Essential Media Eagle with 10% Fetal Bovine Serum. After two days cells were approximately 80% confluent. These were removed from the dish with trypsin and pelleted in a clinical centrifuge. The pellet was then re-suspended in 400 μL complete media and transferred to an electroporation cuvette with a 0.4 cm gap between the electrodes. One microgram of supercoiled H3 receptor cDNA was added to the cells and mixed. The voltage for the electroporation was set at 0.25 kV, the capacitance was set at 960 μF. After electroporation the cells were diluted into 10 mL complete media and plated onto four 10 cm dishes. Because of the variability in the efficiency of electroporation, four different concentrations of cells were plated. The ratios used were; 1:20, 1:10, 1:5, with the remainder of the cells being added to the fourth dish. The cells were allowed to recover for 24 hours before adding the selection media (complete media with 600 μg/mL G418). After 10 days dishes were analyzed for surviving colonies of cells. Dishes with well isolated colonies were used. Cells from individual colonies were isolated and tested. SK-N-MC cells were used because they give efficient coupling for inhibition of adenylate cyclase. The clones that gave the most robust inhibition of adenylate cyclase in response to histamine were used for further study.
[^3H]-N-methylhistamine Binding
Cell pellets from histamine H3 receptor-expressing SK-N-MC cells were homogenized in 20 mM Tris HCl/0.5 mM EDTA. Supernatants from a 800 g spin were collected, recentrifuged at 30,000 g for 30 min. Pellets were re-homogenized in 50 mM Tris/5 mM EDTA (pH 7.4). Membranes were incubated with 0.8 nM [^3H]-N-methylhistamine plus/minus test compounds for 45 min at 25° C. and harvested by rapid filtration over GF/C glass fiber filters (pretreated with 0.3% polyethylenimine) followed by four washes with ice cold buffer. Filters were dried, added to 4 mL scintillation cocktail and then counted on a liquid scintillation counter. Non-specific binding was defined with 10 μM histamine.

[1] abbreviates: membranes of histamine H3 receptor-expressing SK-N-MC cells, 0.8 nM [3H]-N-methylhistamine, 45 min at 25° C., read-out: Ki.

Our source for the Ki values is US7446104B2, “Phenylalkynes” (Ortho-McNeil Pharmaceutical, Inc., priority 2001, dated 2008).

Read-outs that look alike come from different tables or passages of the source.

T1 sequence (Q9Y5N1 whole entry): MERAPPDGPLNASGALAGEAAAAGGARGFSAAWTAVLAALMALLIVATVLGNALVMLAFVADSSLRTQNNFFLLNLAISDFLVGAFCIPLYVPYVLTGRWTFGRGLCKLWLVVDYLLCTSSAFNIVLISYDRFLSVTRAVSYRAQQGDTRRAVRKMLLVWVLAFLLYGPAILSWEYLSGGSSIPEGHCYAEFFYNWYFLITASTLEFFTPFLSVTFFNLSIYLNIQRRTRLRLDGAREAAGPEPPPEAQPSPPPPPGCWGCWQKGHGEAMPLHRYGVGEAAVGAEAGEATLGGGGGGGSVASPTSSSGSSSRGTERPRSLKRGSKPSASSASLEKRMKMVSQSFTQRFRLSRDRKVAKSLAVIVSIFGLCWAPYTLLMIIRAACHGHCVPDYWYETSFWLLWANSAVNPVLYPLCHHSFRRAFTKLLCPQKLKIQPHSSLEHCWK

Turning to `C(#Cc1ccc(CN2CCCCC2)cc1)CCN1CCCCC1` [Example 14, 1-[4-(4-Piperidin-1-ylmethyl-phenyl)-but-3-ynyl]-piperidine], the Ki under setting [1] is 1.6 nM.
For the compound `C(#Cc1cccc(CN2CCCCC2)c1)CCN1CCCCC1` [Example 15, 1-[3-(4-Piperidin-1-yl-but-1-ynyl)-benzyl]-piperidine], under setting [1], the Ki is 0.8 nM.
Still for that read-out and setting: then `C(#Cc1ccc(CN2CCCCC2)cc1)CCN1CCCC1` [Example 18, 1′-[4-(4-Pyrrolidin-1-yl-but-1-ynyl)-benzyl]-piperidine], with 2 nM; and `CCN(CC)CCC#Cc1ccc(CN2CCCCC2)cc1` [Example 19, Diethyl-[4-(4-piperidin-1-ylmethyl-phenyl)-but-3-ynyl]-amine], with 2.4 nM; and `C(#Cc1ccc(CN2CCCCC2)cc1)CCN1CCSCC1` [Example 20, 4-[4-(4-Piperidin-1-ylmethyl-phenyl)-but-3-ynyl]-thiomorpholine], with 6 nM.
For the compound `C(#Cc1ccc(CN2CCCCC2)cc1)CCN1CCOCC1` [Example 21, 4-[4-(4-Piperidin-1-ylmethyl-phenyl)-but-3-ynyl]-morpholine], the Ki under setting [1] was determined as 15 nM.
Consider `CN1CCN(CCC#Cc2ccc(CN3CCCCC3)cc2)CC1` [Example 22, 1-Methyl-4-[4-(4-piperidin-1-ylmethyl-phenyl)-but-3-ynyl]-piperazine], for which the Ki under setting [1] came out at 21 nM.
Still for that read-out and setting: then `C(#Cc1ccc(CN2CCCC2)cc1)CCN1CCCCC1` [Example 23, 1-[4-(4-Pyrrolidin-1-ylmethyl-phenyl)-but-3-ynyl]-piperidine], with 1.4 nM; and `C(#Cc1ccc(CN2CCOCC2)cc1)CCN1CCCCC1` [Example 24, 4-[4-(4-Piperidin-1-yl-but-1-ynyl)-benzyl]-morpholine], with 5.5 nM; and `CCN(CC)Cc1ccc(C#CCCN2CCCCC2)cc1` [Example 25, Diethyl-[4-(4-piperidin-1-yl-but-1-ynyl)-benzyl]-amine], with 1.1 nM.
Same read-out and setting: then `C(#Cc1ccc(CN2CCC(Cc3ccccc3)CC2)cc1)CCN1CCCCC1` [Example 26, 1-{4-[4-(4-Benzyl-piperidin-1-ylmethyl)-phenyl]-but-3-ynyl}-piperidine], with 2.9 nM; and `OC1CCN(Cc2ccc(C#CCCN3CCCCC3)cc2)CC1` [Example 27, 1-[4-(4-Piperidin-1-yl-but-1-ynyl)-benzyl]-piperidin-4-ol], with 1.7 nM; and `OCCC1CCCCN1Cc1ccc(C#CCCN2CCCCC2)cc1` (stereo not drawn) [Example 28, 2-{1-[4-(4-Piperidin-1-yl-but-1-ynyl)-benzyl]-piperidin-2-yl}-ethanol], with 0.4 nM.
The same measure, in the same setting: then `C(#Cc1ccc(CN2CCCC3CCCCC32)cc1)CCN1CCCCC1` (stereo not drawn) [Example 29, 1-[4-(4-Piperidin-1-yl-but-1-ynyl)-benzyl]-decahydro-quinoline], with 0.8 nM.
In the case of `NC(=O)C1CCN(Cc2ccc(C#CCCN3CCCCC3)cc2)CC1` [Example 30, 1-[4-(4-Piperidin-1-yl-but-1-ynyl)-benzyl]-piperidine-4-carboxylic acid amide], the Ki under setting [1] came to 1.6 nM.
Same read-out and setting: then `C(#Cc1ccc(CN2CCC3(CC2)OCCO3)cc1)CCN1CCCCC1` [Example 31, 8-[4-(4-Piperidin-1-yl-but-1-ynyl)-benzyl]-1,4-dioxa-8-aza-spiro[4.5]decane], with 1.8 nM.
Turning to `CN1CCN(Cc2ccc(C#CCCN3CCCCC3)cc2)CC1` [Example 32, 1-Methyl-4-[4-(4-piperidin-1-yl-but-1-ynyl)-benzyl]-piperazine], the Ki is 0.7 nM.
Take `C(#Cc1ccc(CNC2CCCCC2)cc1)CCN1CCCCC1` [Example 33, Cyclohexyl-[4-(4-piperidin-1-yl-but-1-ynyl)-benzyl]-amine]: the Ki under setting [1] turned out to be 0.5 nM.
Consider `C(#Cc1ccc(CNC2CCc3ccccc32)cc1)CCN1CCCCC1` (stereo not drawn) [Example 34, Indan-1-yl-[4-(4-piperidin-1-yl-but-1-ynyl)-benzyl]-amine], for which the Ki under setting [1] amounted to 1.3 nM.
On to `C(#Cc1ccc(CN2CCN(c3ccccc3)CC2)cc1)CCN1CCCCC1` [Example 35, 1-Phenyl-4-[4-(4-piperidin-1-yl-but-1-ynyl)-benzyl]-piperazine], for which the inhibitory constant (Ki) under setting [1] was found to be 7 nM.
`C(#Cc1ccc(CN2CCN(Cc3ccccc3)CC2)cc1)CCN1CCCCC1` [Example 36, 1-Benzyl-4-[4-(4-piperidin-1-yl-but-1-ynyl)-benzyl]-piperazine] came in with a Ki of 9 nM.
As to `CC(C)(C)OC(=O)N1CCN(Cc2ccc(C#CCCN3CCCCC3)cc2)CC1` [Example 37, 4-[4-(4-Piperidin-1-yl-but-1-ynyl)-benzyl]-piperazine-1-carboxylic acid tert-butyl ester], the Ki under setting [1] came to 15 nM.
Compound `C(#Cc1ccc(CN2CCNCC2)cc1)CCN1CCCCC1` [Example 38, 1-[4-(4-Piperidin-1-yl-but-1-ynyl)-benzyl]-piperazine] had a Ki of 1.3 nM.
Turning to `CC(C)N1CCN(Cc2ccc(C#CCCN3CCCCC3)cc2)CC1` [Example 39, 1-Isopropyl-4-[4-(4-piperidin-1-yl-but-1-ynyl)-benzyl]-piperazine], the Ki under setting [1] came to 1.3 nM.
`O=C1NCN(c2ccccc2)C12CCN(Cc1cccc(C#CCCN3CCCCC3)c1)CC2` [Example 40, 1-Phenyl-8-[3-(4-piperidin-1-yl-but-1-ynyl)-benzyl]-1,3,8-triaza-spiro[4.5]decan-4-one]: the Ki (read-out: Ki) was determined as 2 nM.
On to `CCN(CC)C(=O)C1CCCN(Cc2cccc(C#CCCN3CCCCC3)c2)C1` (stereo not drawn) [Example 41, 1-[3-(4-Piperidin-1-yl-but-1-ynyl)-benzyl]-piperidine-3-carboxylic acid diethylamide], for which, under setting [1], the Ki was determined as 3 nM.
Take `C(#Cc1cccc(CN2CCCCC2c2cccnc2)c1)CCN1CCCCC1` (stereo not drawn) [Example 42, 1-[3-(4-Piperidin-1-yl-but-1-ynyl)-benzyl]-1,2,3,4,5,6-hexahydro-[2,3′]bipyridinyl]: the affinity, expressed as Ki, was 11 nM.
Still for that read-out and setting: the same measure for `FC(F)(F)c1cccc(N2CCN(Cc3cccc(C#CCCN4CCCCC4)c3)CC2)c1` [Example 43, 1-[3-(4-Piperidin-1-yl-but-1-ynyl)-benzyl]-4-(3-trifluoromethyl-phenyl)-piperazine]: 91 nM.
As to `C(#Cc1cccc(CN2CCN(c3ncccn3)CC2)c1)CCN1CCCCC1` [Example 44, 2-{4-[3-(4-Piperidin-1-yl-but-1-ynyl)-benzyl]-piperazin-1-yl}-pyrimidine], the Ki under setting [1] was determined as 9 nM.
`NC(=O)C1CCN(Cc2cccc(C#CCCN3CCCCC3)c2)CC1` [Example 45, 1-[3-(4-Piperidin-1-yl-but-1-ynyl)-benzyl]-piperidine-4-carboxylic acid amide]: the Ki under setting [1] came out at 2 nM.
`CN(CCc1ccccn1)Cc1cccc(C#CCCN2CCCCC2)c1` [Example 46, Methyl-[3-(4-piperidin-1-yl-but-1-ynyl)-benzyl]-(2-pyridin-2-yl-ethyl)-amine]: the Ki under setting [1] was determined as 4 nM.
On to `COc1ccc(CCN(C)Cc2cccc(C#CCCN3CCCCC3)c2)cc1OC` [Example 47, [2-(3,4-Dimethoxy-phenyl)-ethyl]-methyl-[3-(4-piperidin-1-yl-but-1-ynyl)-benzyl]-amine], for which, under setting [1], the Ki amounted to 3 nM.
On the same count and under the same terms, then `C(#Cc1cccc(CN2CCSCC2)c1)CCN1CCCCC1` [Example 48, 4-[3-(4-Piperidin-1-yl-but-1-ynyl)-benzyl]-thiomorpholine], with 1 nM.
Still for that read-out and setting: the same measure for `C=CCN(Cc1cccc(C#CCCN2CCCCC2)c1)C1CCCC1` [Example 49, Allyl-cyclopentyl-[3-(4-piperidin-1-yl-but-1-ynyl)-benzyl]-amine]: 2 nM; for `C(#Cc1cccc(CN2CCOCCOCCOCC2)c1)CCN1CCCCC1` [Example 50, 10-[3-(4-Piperidin-1-yl-but-1-ynyl)-benzyl]-1,4,7-trioxa-10-aza-cyclododecane]: 2 nM; for `C(#Cc1cccc(CN2CCSC2)c1)CCN1CCCCC1` [Example 51, 1-[4-(3-Thiazolidin-3-ylmethyl-phenyl)-but-3-ynyl]-piperidine]: 1 nM.
As to `CN(CCc1c[nH]c2ccccc12)Cc1cccc(C#CCCN2CCCCC2)c1` [Example 52, [2-(1H-Indol-3-yl)-ethyl]-methyl-[3-(4-piperidin-1-yl-but-1-ynyl)-benzyl]-amine], the Ki came to 2 nM.
Regarding `C(#Cc1cccc(CNc2ccccc2)c1)CCN1CCCCC1` [Example 54, Phenyl-[3-(4-piperidin-1-yl-but-1-ynyl)-benzyl]-amine], the Ki under setting [1] worked out at 110 nM.
For the compound `C(#Cc1cccc(CN2CCCC2)c1)CCN1CCCCC1` [Example 55, 1-[4-(3-Pyrrolidin-1-ylmethyl-phenyl)-but-3-ynyl]-piperidine], the Ki under setting [1] was 1 nM.

The term Ki denotes the dissociation constant of the complex between target and ligand, obtained from inhibition or displacement.
